26 molecules from paper PMC11219766 (Nature Communications, 2024) can be followed below.

In experiment [1] the target is T1, CIB1 (Homo sapiens, UniProt Q99828).
Text: (§1) Binding of the 56 purchased compounds was experimentally assessed in a time-resolved fluorescence energy transfer (TR-FRET) assay (see Fig. 3A and Supplementary data 1). Briefly, it serves as a displacement assay using an AlexaFluor-labeled cyclic CIB1-binding peptide and a Europium (Eu)-labeled Streptavidin donor for attachment to the AviTag biotinylated CIB1 protein (described previously in Puhl et al. and Haberman et al.[47],[62]).
(§2) A CIB1 TR-FRET assay uses an AlexaFluor-labeled cyclic CIB1-binding peptide and a Europium (Eu)-labeled Streptavidin donor for attachment to the AviTag biotinylated CIB1 protein. […] Compounds were dispensed into 384-well plates using a Mosquito HTS nanoliter instrument (TTP LABTech) as 3-fold serial dilutions (100x in DMSO, 0.1 μL) for final concentrations ranging from 100 μM to 0.5 nM. Biotinylated CIB1 was diluted to a final concentration of 3 nM in assay buffer (20 mM) TRIS pH 7.5, 150 mM NaCl, 1 mM CaCl, 1 mM CHAPS, and 1 mM DTT (added fresh each time), and 5 μL of diluted protein was added to the wells of the assay plate using a Multidrop Combi Reagent Dispenser (Thermo Scientific) and incubated at room temperature for 20 min. 5 μL detection solution containing 2 nM Lance Eu-Streptavidin (Perkin Elmer) and 30 nM Alexa647-CIB1-phage peptide diluted in assay buffer was added to the wells and incubated 30–60 min at room temperature protected from light. TR-FRET signals were measured using an Envision Multilabel Plate Reader (PerkinElmer; Eu excitation 320 nm, Eu emission 615 nm, Alexa dye emission 665 nm). […] Inhibition curves were analyzed using a four-parameter non-linear curve fit using ScreenAble software, and the mean and standard deviation were calculated. Publication curves were averaged and fit with a four-parameter non-liner curve fit using GraphPad Prism.
The target of experiment [2] is T1, CIB1. As to the kind of experiment: biochemical.
Text: as §1, §2

T1 sequence (Q99828 whole entry): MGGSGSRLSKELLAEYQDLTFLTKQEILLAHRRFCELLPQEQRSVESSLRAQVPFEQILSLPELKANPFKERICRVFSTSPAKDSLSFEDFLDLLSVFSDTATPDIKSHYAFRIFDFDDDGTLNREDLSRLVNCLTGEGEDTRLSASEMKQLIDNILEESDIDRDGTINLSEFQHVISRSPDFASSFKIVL

Take `COc1cccc(OCCCn2cc(C=C3C(=O)NC(=O)N(Cc4ccco4)C3=O)c3ccccc32)c1` [UNC10245380A, COc1cccc(OCCCn2cc(C=C3C(=O)NC(=O)N(Cc4ccco4)C3=O)c3ccccc23)c1]: the Hill slope at CIB1 [1] is on record as 1.5–2.5.
In general, IC50 refers to the point on the concentration scale where inhibition reaches its midpoint. A higher IC50 goes with a need for much substance. Turning to `O=C(NCc1ccc2c(c1)OCO2)C1CCN(S(=O)(=O)c2cccc3nsnc23)CC1` [UNC10245381A, O=C(NCc1ccc2OCOc2c1)C1CCN(CC1)S(=O)(=O)c1cccc2nsnc12], it took 84 µM to reach half-maximal inhibition on CIB1 [2] (IC50). This counts as double-digit micromolar.
The same measure, in the same setting: for `CC(c1nnc(SCC(=O)Nc2ccc(Oc3ccccc3)cc2)n1C)N1C(=O)COc2ccccc21` (centres unmarked) [UNC10245386A, CC(N1C(=O)COc2ccccc12)c1nnc(SCC(=O)Nc2ccc(Oc3ccccc3)cc2)n1C] the value was 33 µM; for `CC(c1cc(-c2ccccc2)[nH]n1)N(C)C(=O)C1CCN(c2cccc3c2C(=O)N(Cc2cccs2)C3=O)CC1` (centres unmarked) [UNC10245397A, CC(N(C)C(=O)C1CCN(CC1)c1cccc2C(=O)N(Cc3cccs3)C(=O)c12)c1cc([nH]n1)-c1ccccc1], 24 µM.
As for `O=C(Nc1cccc2ncccc12)c1cccc(NS(=O)(=O)c2ccc3c(c2)OCCCO3)c1` [UNC10245399A, O=C(Nc1cccc2ncccc12)c1cccc(NS(=O)(=O)c2ccc3OCCCOc3c2)c1], half-maximal inhibition against CIB1 [2] (IC50) was put at 59 µM.
The same measure, in the same setting: for `Cc1ccc(C)c(S(=O)(=O)N2CCN(C(=O)CSc3nnc(-c4ccc5c(c4)OCO5)n3-c3ccccc3)CC2)c1` [UNC10245404A, Cc1ccc(C)c(c1)S(=O)(=O)N1CCN(CC1)C(=O)CSc1nnc(-c2ccc3OCOc3c2)n1-c1ccccc1] the value was 14 µM; for `Cc1noc(C)c1COc1cccc(C(=O)Nc2cccc(S(=O)(=O)Nc3cccc(C(F)(F)F)c3)c2)c1` [UNC10245406A, Cc1noc(C)c1COc1cccc(c1)C(=O)Nc1cccc(c1)S(=O)(=O)Nc1cccc(c1)C(F)(F)F], 39 µM.
Still for that read-out and setting: to `COc1cccc(C(=O)N(CC(=O)Nc2ccc(N3CCN(C(=O)c4ccc(C)cc4)CC3)cc2)Cc2ccc(F)cc2)c1` [UNC10245410A, COc1cccc(c1)C(=O)N(CC(=O)Nc1ccc(cc1)N1CCN(CC1)C(=O)c1ccc(C)cc1)Cc1ccc(F)cc1] belongs 11 µM; to `CN(Cc1ccco1)C(=O)c1ccc(COc2ccc3c(c2)C(c2cccc(F)c2)N(C(=O)C2CC2)CC3)o1` (centres unmarked) [UNC10245413A, CN(Cc1ccco1)C(=O)c1ccc(COc2ccc3CCN(C(c4cccc(F)c4)c3c2)C(=O)C2CC2)o1], 48 µM; to `CCOC(=O)c1cc(-c2ccc(N3CCN(C(=O)COc4ccccc4)CC3)cc2)n(-c2ccccc2OC)n1` [UNC10245416A, CCOC(=O)c1cc(-c2ccc(cc2)N2CCN(CC2)C(=O)COc2ccccc2)n(n1)-c1ccccc1OC], 12 µM.
The same measure, in the same setting: for `COc1cccc(CNC(=O)C2CCN(C(=O)[C@@H](Cc3ccccc3)NC(=O)COc3ccccc3)CC2)c1` [UNC10245418A, COc1cccc(CNC(=O)C2CCN(CC2)C(=O)[C@@H](Cc2ccccc2)NC(=O)COc2ccccc2)c1] the value was 93 µM.
`COc1ccccc1N1CCN(C(=O)CCCc2nnc3n(CC(C)C)c(=O)c4sccc4n23)CC1` [UNC10245420A, COc1ccccc1N1CCN(CC1)C(=O)CCCc1nnc2n(CC(C)C)c(=O)c3sccc3n12] showed an IC50 against CIB1 [2] of 87 µM.
Still for that read-out and setting: for `CCOc1ccccc1NC(=O)Nc1cccc(OCc2cc(=O)n3ccccc3n2)c1` [UNC10245432A, CCOc1ccccc1NC(=O)Nc1cccc(OCc2cc(=O)n3ccccc3n2)c1] the value was 43 µM; for `Cc1cc(NC(=O)CSc2nc3ccccc3c(=O)n2CC2CCC(C(=O)NCc3ccccc3Cl)CC2)n[nH]1` (centres unmarked) [UNC10245433A, Cc1cc(NC(=O)CSc2nc3ccccc3c(=O)n2CC2CCC(CC2)C(=O)NCc2ccccc2Cl)n[nH]1], 8.8 µM; for `CC1Cc2ccccc2N1C(=O)CC1CCN(S(=O)(=O)c2ccc3c(c2)oc(=O)n3C)CC1` (centres unmarked) [UNC10245457A, CC1Cc2ccccc2N1C(=O)CC1CCN(CC1)S(=O)(=O)c1ccc2n(C)c(=O)oc2c1], 44 µM.
On CIB1 [2], `COc1ccccc1OCCC1CCN(C(=O)C2CCN(S(=O)(=O)c3cccc4nonc34)CC2)C1` (centres unmarked) [UNC10245474A, COc1ccccc1OCCC1CCN(C1)C(=O)C1CCN(CC1)S(=O)(=O)c1cccc2nonc12] displayed an IC50 of 75 µM. Against the preceding molecule, the IC50 is about 1.7-fold higher.
In turn, `COc1ccccc1OCCCn1cc(C=C2C(=O)NC(=O)N(Cc3ccco3)C2=O)c2ccccc21` [UNC10245533, COc1ccccc1OCCCn1cc(C=C2C(=O)NC(=O)N(Cc3ccco3)C2=O)c2ccccc12] showed an IC50 at CIB1 [2] of 9.8 µM. Against the preceding molecule, the IC50 is about 7.7-fold lower.
The same measure, in the same setting: for `O=C1NC(=O)N(Cc2ccco2)C(=O)C1=Cc1cn(CCCOc2ccccc2)c2ccccc12` [UNC10245534, O=C1NC(=O)C(=Cc2cn(CCCOc3ccccc3)c3ccccc23)C(=O)N1Cc1ccco1] the value was 24 µM; for `Cc1cccc(OCCCn2cc(C=C3C(=O)NC(=O)N(Cc4ccco4)C3=O)c3ccccc32)c1` [UNC10245535, Cc1cccc(OCCCn2cc(C=C3C(=O)NC(=O)N(Cc4ccco4)C3=O)c3ccccc23)c1], 6.1 µM; for `O=C1NC(=O)N(Cc2ccco2)C(=O)C1=Cc1cn(CCCOc2ccccc2Cl)c2ccccc12` [UNC10245536, Clc1ccccc1OCCCn1cc(C=C2C(=O)NC(=O)N(Cc3ccco3)C2=O)c2ccccc12], 12 µM.
Same read-out and setting: to `COc1ccccc1OCCn1cc(C=C2C(=O)NC(=O)N(Cc3ccco3)C2=O)c2ccccc21` [UNC10245537, COc1ccccc1OCCn1cc(C=C2C(=O)NC(=O)N(Cc3ccco3)C2=O)c2ccccc12] belongs 22 µM; to `COc1ccc(OCCn2cc(C=C3C(=O)NC(=O)N(Cc4ccco4)C3=O)c3ccccc32)cc1` [UNC10245538, COc1ccc(OCCn2cc(C=C3C(=O)NC(=O)N(Cc4ccco4)C3=O)c3ccccc23)cc1], 19 µM; to `COc1ccc(OCCCn2cc(C=C3C(=O)NC(=O)N(Cc4ccco4)C3=O)c3ccccc32)cc1` [UNC10245539, COc1ccc(OCCCn2cc(C=C3C(=O)NC(=O)N(Cc4ccco4)C3=O)c3ccccc23)cc1], 18 µM.
The same measure, in the same setting: to `Cc1cc(OCCCn2cc(C=C3C(=O)NC(=O)N(Cc4ccco4)C3=O)c3ccccc32)cc(C)c1Cl` [UNC10245540, Cc1cc(OCCCn2cc(C=C3C(=O)NC(=O)N(Cc4ccco4)C3=O)c3ccccc23)cc(C)c1Cl] belongs 23 µM.
Molecule `Cc1cc(C)cc(OCCCn2cc(C=C3C(=O)NC(=O)N(Cc4ccco4)C3=O)c3ccccc32)c1` [UNC10245541, Cc1cc(C)cc(OCCCn2cc(C=C3C(=O)NC(=O)N(Cc4ccco4)C3=O)c3ccccc23)c1] registered an IC50 at CIB1 [2] of 4.3 µM.
On the same count and under the same terms, for `COc1cccc(OCCn2cc(C=C3C(=O)NC(=O)N(Cc4ccco4)C3=O)c3ccccc32)c1` [UNC10245542, COc1cccc(OCCn2cc(C=C3C(=O)NC(=O)N(Cc4ccco4)C3=O)c3ccccc23)c1] the value was 50 µM.
